Test system: relapsed or refractory, rituximab-naive or -sensitive follicular B-cell NHL
Assay: Time to next anti-lymphoma therapy, Vc-R vs rituximab study, by biomarker
Assay type: in vivo, human
Set-up: Median, Time to Next Anti-Lymphoma Therapy / Time to Next Anti-Lymphoma Therapy, Median: unit not given here
Source text: Non-Hodgkin lymphoma (NHL) encompasses several unique malignant lymphoid disease entities that vary in clinical behavior, morphologic appearance, immunologic, and molecular phenotype. […] A randomized, open-label, active-controlled, multicenter, multinational, prospective study to compare the efficacy and safety of the combination of bortezomib and rituximab (Vc-R) to single-agent rituximab in subjects who have relapsed or refractory, rituximab-naive or -sensitive follicular B-cell NHL was performed.
Subjects were centrally randomized to Treatment Groups A (Vc-R) or B (rituximab) in a 1:1 ratio taking into account the following stratification factors: • Follicular Lymphoma International Prognostic Index (FLIPI) score (low [0 or 1 factor], intermediate [2 factors], high [≧3 factors]); • Prior rituximab therapy (yes, no); • Time since last dose of anti-lymphoma therapy (≦1 year, >1 year); • Region (United States/Canada, European Union, Rest of World).
The following clinical endpoints were included in the analysis within each treatment group and an overall comparison was made with the biomarker-related endpoints: Progression-free survival, defined as the interval between the date of randomization and the date of progressive disease (PD) or death, whichever is first reported in the ITT population; overall survival; overall response rate (complete response [CR]+CR unconfirmed [CRu]+partial response [PR]); overall CR rate (CR+CRu); duration of response; time to next anti-lymphoma therapy; and treatment free interval.

[1] = PSMB5/L206M: C/C, High Tumor Burden
[2] = PSMB5/L206M: C/C, ≦65 years old
[3] = PSMB5/R24C: C/C, >1 year since last anti-lymphoma treatment
[4] = PSMB5/R24C: C/T, Ann Arbor Stage IV
[5] = PSMB5/R24C: C/T, High Tumor Burden
[6] = PSMB6/A234D: C/C, >1 year since last anti-lymphoma treatment
[7] = PSMB6/A234D: C/C, Ann Arbor Stage IV
[8] = PSMB6/A234D: C/C, European Union
[9] = PSMB6/A234D: C/C, High Tumor Burden
[10] = PSMB6/A234D: C/C, ≦65 years old
[11] = PSMB6/P107A: C/C, >1 year since last anti-lymphoma treatment
[12] = PSMB6/P107A: C/C, Ann Arbor Stage IV
[13] = PSMB6/P107A: C/C, High Tumor Burden
[14] = PSMB6/P107A: C/C, ≦65 years old
[15] = PSMB8/G8R: G/G, >1 year since last anti-lymphoma treatment
[16] = PSMB8/G8R: G/G, Ann Arbor Stage IV
[17] = PSMB8/G8R: G/G, High Tumor Burden
[18] = PSMB8/R141C: C/C, >1 year since last anti-lymphoma treatment
[19] = PSMB8/R141C: C/C, Ann Arbor Stage IV
[20] = PSMB8/R141C: C/C, European Union
[21] = PSMB8/R141C: C/C, High Tumor Burden
[22] = PSMB8/R141C: C/C, ≦65 years old
[23] = PSMB8/V182M: G/G, >1 year since last anti-lymphoma treatment
[24] = PSMB8/V182M: G/G, Ann Arbor Stage IV
[25] = PSMB8/V182M: G/G, European Union
[26] = PSMB8/V182M: G/G, High Tumor Burden
[27] = PSMB8/V182M: G/G, ≦65 years old
[28] = PSMB9/G9E: G/G, >1 year since last anti-lymphoma treatment
[29] = PSMB9/G9E: G/G, Ann Arbor Stage IV
[30] = PSMB9/G9E: G/G, High Tumor Burden
[31] = PSMB9/V32I: C/C, 5 Prior Lines of Therapy
[32] = PSMB9/V32I: C/C, >1 year since last anti-lymphoma treatment
[33] = PSMB9/V32I: C/C, Ann Arbor Stage IV
[34] = PSMB9/V32I: C/C, High Tumor Burden

Substance: rituximab
- Time to Next Anti-Lymphoma Therapy, Median (PSMB5/L206M: C/C, European Union): 675
- Time to Next Anti-Lymphoma Therapy, Evt/N [1]: 108/147
- Time to Next Anti-Lymphoma Therapy, Median [1]: 396
- Time to Next Anti-Lymphoma Therapy, Evt/N (PSMB5/L206M: C/C, No Subgroup): 173/276
- Time to Next Anti-Lymphoma Therapy, Median (PSMB5/L206M: C/C, No Subgroup): 546
- Time to Next Anti-Lymphoma Therapy, Evt/N [2]: 130/198
- Time to Next Anti-Lymphoma Therapy, Median [2]: 489
- Time to Next Anti-Lymphoma Therapy, Evt/N [3]: 81/137
- Time to Next Anti-Lymphoma Therapy, Median [3]: 649
- Time to Next Anti-Lymphoma Therapy, Evt/N (PSMB5/R24C: C/C, No Subgroup): 147/235
- Time to Next Anti-Lymphoma Therapy, Median (PSMB5/R24C: C/C, No Subgroup): 546
- Time to Next Anti-Lymphoma Therapy, Evt/N (PSMB5/R24C: C/C, ≦65 years old): 113/170
- Time to Next Anti-Lymphoma Therapy, Median (PSMB5/R24C: C/C, ≦65 years old): 489
- Time to Next Anti-Lymphoma Therapy, Evt/N [4]: 11/15
- Time to Next Anti-Lymphoma Therapy, Median [4]: 421
- Time to Next Anti-Lymphoma Therapy, Evt/N [5]: 19/21
- Time to Next Anti-Lymphoma Therapy, Median [5]: 317
- Time to Next Anti-Lymphoma Therapy, Evt/N [6]: 98/165
- Time to Next Anti-Lymphoma Therapy, Median [6]: 688
- Time to Next Anti-Lymphoma Therapy, Evt/N [7]: 86/127
- Time to Next Anti-Lymphoma Therapy, Median [7]: 457
- Time to Next Anti-Lymphoma Therapy, Evt/N [8]: 75/119
- Time to Next Anti-Lymphoma Therapy, Median [8]: 675
- Time to Next Anti-Lymphoma Therapy, Evt/N [9]: 108/147
- Time to Next Anti-Lymphoma Therapy, Median [9]: 396
- Time to Next Anti-Lymphoma Therapy, Evt/N (PSMB6/A234D: C/C, No Subgroup): 173/276
- Time to Next Anti-Lymphoma Therapy, Median (PSMB6/A234D: C/C, No Subgroup): 546
- Time to Next Anti-Lymphoma Therapy, Evt/N [10]: 130/198
- Time to Next Anti-Lymphoma Therapy, Median [10]: 489
- Time to Next Anti-Lymphoma Therapy, Evt/N [11]: 95/159
- Time to Next Anti-Lymphoma Therapy, Median [11]: 702
- Time to Next Anti-Lymphoma Therapy, Evt/N [12]: 84/124
- Time to Next Anti-Lymphoma Therapy, Median [12]: 485
- Time to Next Anti-Lymphoma Therapy, Evt/N [13]: 104/140
- Time to Next Anti-Lymphoma Therapy, Median [13]: 380
- Time to Next Anti-Lymphoma Therapy, Evt/N (PSMB6/P107A: C/C, No Subgroup): 167/265
- Time to Next Anti-Lymphoma Therapy, Median (PSMB6/P107A: C/C, No Subgroup): 550
- Time to Next Anti-Lymphoma Therapy, Evt/N [14]: 125/189
- Time to Next Anti-Lymphoma Therapy, Median [14]: 504
- Time to Next Anti-Lymphoma Therapy, Evt/N [15]: 91/155
- Time to Next Anti-Lymphoma Therapy, Median [15]: 702
- Time to Next Anti-Lymphoma Therapy, Evt/N [16]: 80/120
- Time to Next Anti-Lymphoma Therapy, Median [16]: 457
- Time to Next Anti-Lymphoma Therapy, Evt/N (PSMB8/G8R: G/G, European Union): 70/111
- Time to Next Anti-Lymphoma Therapy, Median (PSMB8/G8R: G/G, European Union): 649
- Time to Next Anti-Lymphoma Therapy, Evt/N (PSMB8/G8R: G/G, Female): 94/160
- Time to Next Anti-Lymphoma Therapy, Median (PSMB8/G8R: G/G, Female): 649
- Time to Next Anti-Lymphoma Therapy, Evt/N [17]: 104/140
- Time to Next Anti-Lymphoma Therapy, Median [17]: 374
- Time to Next Anti-Lymphoma Therapy, Evt/N (PSMB8/G8R: G/G, No Subgroup): 165/264
- Time to Next Anti-Lymphoma Therapy, Median (PSMB8/G8R: G/G, No Subgroup): 537
- Time to Next Anti-Lymphoma Therapy, Evt/N (PSMB8/G8R: G/G, ≦65 years old): 123/189
- Time to Next Anti-Lymphoma Therapy, Median (PSMB8/G8R: G/G, ≦65 years old): 504
- Time to Next Anti-Lymphoma Therapy, Evt/N [18]: 98/165
- Time to Next Anti-Lymphoma Therapy, Median [18]: 688
- Time to Next Anti-Lymphoma Therapy, Evt/N [19]: 86/127
- Time to Next Anti-Lymphoma Therapy, Median [19]: 457
- Time to Next Anti-Lymphoma Therapy, Evt/N [20]: 75/119
- Time to Next Anti-Lymphoma Therapy, Median [20]: 675
- Time to Next Anti-Lymphoma Therapy, Evt/N [21]: 108/147
- Time to Next Anti-Lymphoma Therapy, Median [21]: 396
- Time to Next Anti-Lymphoma Therapy, Evt/N (PSMB8/R141C: C/C, No Subgroup): 173/276
- Time to Next Anti-Lymphoma Therapy, Median (PSMB8/R141C: C/C, No Subgroup): 546
- Time to Next Anti-Lymphoma Therapy, Evt/N [22]: 130/198
- Time to Next Anti-Lymphoma Therapy, Median [22]: 489
- Time to Next Anti-Lymphoma Therapy, Evt/N [23]: 98/165
- Time to Next Anti-Lymphoma Therapy, Median [23]: 688
- Time to Next Anti-Lymphoma Therapy, Evt/N [24]: 86/127
- Time to Next Anti-Lymphoma Therapy, Median [24]: 457
- Time to Next Anti-Lymphoma Therapy, Evt/N [25]: 75/119
- Time to Next Anti-Lymphoma Therapy, Median [25]: 675
- Time to Next Anti-Lymphoma Therapy, Evt/N [26]: 108/147
- Time to Next Anti-Lymphoma Therapy, Median [26]: 396
- Time to Next Anti-Lymphoma Therapy, Evt/N (PSMB8/V182M: G/G, No Subgroup): 173/276
- Time to Next Anti-Lymphoma Therapy, Median (PSMB8/V182M: G/G, No Subgroup): 546
- Time to Next Anti-Lymphoma Therapy, Evt/N [27]: 130/198
- Time to Next Anti-Lymphoma Therapy, Median [27]: 489
- Time to Next Anti-Lymphoma Therapy, Evt/N [28]: 97/163
- Time to Next Anti-Lymphoma Therapy, Median [28]: 688
- Time to Next Anti-Lymphoma Therapy, Evt/N [29]: 86/126
- Time to Next Anti-Lymphoma Therapy, Median [29]: 457
- Time to Next Anti-Lymphoma Therapy, Evt/N (PSMB9/G9E: G/G, European Union): 75/119
- Time to Next Anti-Lymphoma Therapy, Median (PSMB9/G9E: G/G, European Union): 675
- Time to Next Anti-Lymphoma Therapy, Evt/N [30]: 107/145
- Time to Next Anti-Lymphoma Therapy, Median [30]: 396
- Time to Next Anti-Lymphoma Therapy, Evt/N (PSMB9/G9E: G/G, No Subgroup): 172/274
- Time to Next Anti-Lymphoma Therapy, Median (PSMB9/G9E: G/G, No Subgroup): 546
- Time to Next Anti-Lymphoma Therapy, Evt/N (PSMB9/G9E: G/G, ≦65 years old): 129/196
- Time to Next Anti-Lymphoma Therapy, Median (PSMB9/G9E: G/G, ≦65 years old): 489
- Time to Next Anti-Lymphoma Therapy, Evt/N (PSMB9/R60H: A/G, Male): 22/28
- Time to Next Anti-Lymphoma Therapy, Median (PSMB9/R60H: A/G, Male): 380
- Time to Next Anti-Lymphoma Therapy, Evt/N [31]: 7/8
- Time to Next Anti-Lymphoma Therapy, Median [31]: 228
- Time to Next Anti-Lymphoma Therapy, Evt/N [32]: 96/160
- Time to Next Anti-Lymphoma Therapy, Median [32]: 649
- Time to Next Anti-Lymphoma Therapy, Evt/N [33]: 84/123
- Time to Next Anti-Lymphoma Therapy, Median [33]: 457
- Time to Next Anti-Lymphoma Therapy, Evt/N [34]: 106/142
- Time to Next Anti-Lymphoma Therapy, Median [34]: 396
- Time to Next Anti-Lymphoma Therapy, Evt/N (PSMB9/V32I: C/C, ≦65 years old): 127/192
- Time to Next Anti-Lymphoma Therapy, Median (PSMB9/V32I: C/C, ≦65 years old): 489

Source: patent US9322066B2, “Predictors for cancer treatment” (priority 2011, dated 2016)
